We go through two substances from US3937820A, “Insulin composition providing alternatives to immunological resistance” (Hoechst Aktiengesellschaft, priority 1972, dated 1976).

The nature of the test: activity of the starting insulins in I.U./mg. To be noted: starting insulin; crystallized insulin calculated on dry substance.

Some results are limits rather than exact numbers.

“des-phenyl-alanine^B1 insulin [des-Phe^B1 insulin]”: the activity is 25 I.U./mg.

Regarding “crystallized insulin: pure crystallized complete insulin used as starting material”, the activity was no less than 25 I.U./mg.
